Laboratory results reported in ChEMBL document CHEMBL1201862, “PubChem BioAssay data set” (2004).
Activity calls are given as the source filed them.

Tests used:
[1] = system: A-375; assay: proliferation inhibition in MITF-low A375 cells – cell-based, cherry-pick samples, set 2, counter-screen for MITF modulator project, dose response (AID 540335); assay type: functional; conditions: Homo sapiens
[2] = IGROV1 cell killing – plate reader, dry powder samples, PAX8 inhibitor project, dose response (AID 743043); assay type: functional, cell-based; conditions: IGROV-1
[3] = PAX5 cellular inhibition readout – cell-based, plate reader, dry powder samples, selectivity assay for PAX8 inhibitor project, dose response (AID 743047); assay type: functional;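 note: HEK293 cells carrying a Pax5 driven CD19 promoter luciferase reporter; potency of inhibitors that lower reporter luminescence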
[4] = system: A-375; assay: MITF: Counter assay: A375 proliferation Measured in Cell-Based System Using Plate Reader - 2084-03_Inhibitor_Dose_DryPowder_Activity. [Related pubchem assays (depositor defined):AID488944]; assay type: functional; conditions: Homo sapiens
[5] = system: H4; assay: Luminescence Cell-Based Dose Response HTS to Identify Activators of 5'UTR Stem-Loop Driven Prion Protein mRNA Translation in H4 Neuroglioblastoma Cells. [Related pubchem assays: 1829 (Project Summary), 1814 (Primary HTS)]; assay type: functional; conditions: Homo sapiens
[6] = COV434 cell viability loss – plate reader, dry powder, SA7, cytotoxicity control for PAX8 inhibitor project, dose response (AID 743145); assay type: functional, cell-based
[7] = PAX8-dependent cell viability loss – plate reader, dry powder, dose response (AID 743049); assay type: functional, cell-based
[8] = A2780 cell killing – plate reader, dry powder samples, cytotoxicity control, dose response (AID 743046); assay type: functional, cell-based
[9] = toxicity toward immortalized ovarian surface epithelium – cell-based, plate reader, dry powder samples, cytotoxicity control for PAX8 inhibitor project, dose response (AID 743045); assay type: functional
[10] = molecular target: T1, Microphthalmia-associated transcription factor (Homo sapiens, UniProt O75030); assay: reducers of TRPM1 reporter luminescence, concentration series – cell-based, SK-MEL-5, cherry-picked, set 3, MITF inhibitor project, dose response (AID 493073); assay type: functional;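 note: SK-MEL-5 melanoma cells with luciferase driven by the MITF target TRPM1 promoter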
T1 sequence (O75030 whole entry): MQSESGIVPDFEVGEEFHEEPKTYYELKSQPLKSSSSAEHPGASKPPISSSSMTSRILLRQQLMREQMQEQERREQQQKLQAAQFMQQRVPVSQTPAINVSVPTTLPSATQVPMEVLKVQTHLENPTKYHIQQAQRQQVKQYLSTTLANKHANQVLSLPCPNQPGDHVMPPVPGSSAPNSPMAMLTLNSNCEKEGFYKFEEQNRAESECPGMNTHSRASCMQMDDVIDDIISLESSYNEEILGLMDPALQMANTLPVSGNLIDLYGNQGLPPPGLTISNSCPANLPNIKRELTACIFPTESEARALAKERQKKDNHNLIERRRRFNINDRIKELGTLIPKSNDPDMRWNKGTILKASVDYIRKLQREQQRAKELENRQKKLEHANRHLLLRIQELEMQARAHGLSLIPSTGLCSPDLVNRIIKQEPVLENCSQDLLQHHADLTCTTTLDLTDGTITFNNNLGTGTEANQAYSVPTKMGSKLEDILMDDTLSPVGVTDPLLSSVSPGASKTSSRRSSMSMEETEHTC

[11] = molecular target: Paired box protein Pax-8 (Homo sapiens, UniProt Q06710); assay: PAX8 transcriptional activity inhibition in RMG-I – RMG-I cells, luciferase, cherry-pick, dose response (AID 687027); assay type: functional, cell-based;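 note: luciferase reporter driven by Pax8 target thyroperoxidase promoter measured by SteadyGlo luminescence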
Chain of Paired box protein Pax-8 (Q06710 whole entry): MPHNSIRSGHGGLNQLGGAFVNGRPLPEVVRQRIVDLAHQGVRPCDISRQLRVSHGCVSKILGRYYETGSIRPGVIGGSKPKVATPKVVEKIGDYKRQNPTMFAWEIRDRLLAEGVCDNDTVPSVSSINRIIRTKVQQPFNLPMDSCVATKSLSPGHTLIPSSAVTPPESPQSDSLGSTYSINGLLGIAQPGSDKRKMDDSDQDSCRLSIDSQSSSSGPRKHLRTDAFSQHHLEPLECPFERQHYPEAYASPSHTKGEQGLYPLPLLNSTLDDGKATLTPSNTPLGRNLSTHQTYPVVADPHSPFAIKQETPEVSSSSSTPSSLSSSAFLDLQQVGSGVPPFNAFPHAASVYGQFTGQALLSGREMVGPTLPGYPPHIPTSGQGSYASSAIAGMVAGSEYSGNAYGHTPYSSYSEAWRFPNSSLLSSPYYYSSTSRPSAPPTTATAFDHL

[12] = inhibitors acting on PAX2 in cells – cell-based, plate reader, dry powder samples, selectivity assay for PAX8 inhibitor project, dose response (AID 743048); assay type: functional;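 note: HEK293 cells carrying a WT1 promoter luciferase reporter driven by expressed Pax2; potency is for inhibition of Pax2 driven reporter signal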
[13] = OVCAR4 cell viability loss – plate reader, dry powder, SA11, cytotoxicity control for PAX8 inhibitor project, dose response (AID 743150); assay type: functional, cell-based; conditions: OVCAR-4
[14] = molecular target: T2, Protein RecA (Mycobacterium tuberculosis, UniProt P9WHJ3); assay: Fluorescence Cell-Free Homogeneous Dose Retest to Identify Inhibitors of RecA-Intein Splicing Activity. [Related pubchem assays (depositor defined):AID2097, AID2223, AID489010, AID492950]; assay type: functional
T2 sequence (P9WHJ3 whole entry): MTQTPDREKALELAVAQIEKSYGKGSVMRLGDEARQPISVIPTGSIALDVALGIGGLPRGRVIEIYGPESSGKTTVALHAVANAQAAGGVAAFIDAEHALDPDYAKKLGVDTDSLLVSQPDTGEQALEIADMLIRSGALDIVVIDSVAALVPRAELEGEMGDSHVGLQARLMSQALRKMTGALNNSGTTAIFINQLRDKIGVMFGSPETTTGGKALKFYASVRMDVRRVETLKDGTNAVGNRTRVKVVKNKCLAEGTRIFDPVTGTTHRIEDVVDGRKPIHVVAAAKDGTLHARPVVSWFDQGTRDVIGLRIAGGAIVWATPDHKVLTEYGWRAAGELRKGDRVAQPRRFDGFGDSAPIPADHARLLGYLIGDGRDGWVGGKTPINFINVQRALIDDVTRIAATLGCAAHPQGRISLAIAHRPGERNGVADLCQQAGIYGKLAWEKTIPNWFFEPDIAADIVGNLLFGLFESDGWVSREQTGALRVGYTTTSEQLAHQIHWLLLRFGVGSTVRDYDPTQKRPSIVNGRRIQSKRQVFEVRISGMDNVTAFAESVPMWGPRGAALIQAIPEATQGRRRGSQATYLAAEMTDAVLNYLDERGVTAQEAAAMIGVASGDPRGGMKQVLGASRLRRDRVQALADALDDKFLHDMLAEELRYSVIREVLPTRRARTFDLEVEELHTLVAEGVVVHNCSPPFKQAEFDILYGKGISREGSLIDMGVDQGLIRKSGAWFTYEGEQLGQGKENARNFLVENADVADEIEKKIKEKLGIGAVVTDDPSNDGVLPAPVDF

[15] = OV-90 cell viability loss – plate reader, dry powder, SA8, PAX8 inhibitor project, dose response (AID 743149); assay type: functional, cell-based
[16] = viability loss of HPDE-C7K cells – cell-based, fluorescence, HTS, primary screen (AID 431); assay type: functional; conditions: Homo sapiens
[17] = HPDE-C7 pancreatic duct cell viability loss – fluorescence, HTS (AID 430); assay type: functional, cell-based; conditions: Homo sapiens
[18] = molecular target: T3, Replicative DNA helicase DnaB (Mycobacterium tuberculosis, UniProt P9WMR3); assay: DnaB intein splicing inhibitors, dose response, biochemical, cell-free fluorescence (AID 449749); assay type: functional
T3 sequence (P9WMR3 whole entry): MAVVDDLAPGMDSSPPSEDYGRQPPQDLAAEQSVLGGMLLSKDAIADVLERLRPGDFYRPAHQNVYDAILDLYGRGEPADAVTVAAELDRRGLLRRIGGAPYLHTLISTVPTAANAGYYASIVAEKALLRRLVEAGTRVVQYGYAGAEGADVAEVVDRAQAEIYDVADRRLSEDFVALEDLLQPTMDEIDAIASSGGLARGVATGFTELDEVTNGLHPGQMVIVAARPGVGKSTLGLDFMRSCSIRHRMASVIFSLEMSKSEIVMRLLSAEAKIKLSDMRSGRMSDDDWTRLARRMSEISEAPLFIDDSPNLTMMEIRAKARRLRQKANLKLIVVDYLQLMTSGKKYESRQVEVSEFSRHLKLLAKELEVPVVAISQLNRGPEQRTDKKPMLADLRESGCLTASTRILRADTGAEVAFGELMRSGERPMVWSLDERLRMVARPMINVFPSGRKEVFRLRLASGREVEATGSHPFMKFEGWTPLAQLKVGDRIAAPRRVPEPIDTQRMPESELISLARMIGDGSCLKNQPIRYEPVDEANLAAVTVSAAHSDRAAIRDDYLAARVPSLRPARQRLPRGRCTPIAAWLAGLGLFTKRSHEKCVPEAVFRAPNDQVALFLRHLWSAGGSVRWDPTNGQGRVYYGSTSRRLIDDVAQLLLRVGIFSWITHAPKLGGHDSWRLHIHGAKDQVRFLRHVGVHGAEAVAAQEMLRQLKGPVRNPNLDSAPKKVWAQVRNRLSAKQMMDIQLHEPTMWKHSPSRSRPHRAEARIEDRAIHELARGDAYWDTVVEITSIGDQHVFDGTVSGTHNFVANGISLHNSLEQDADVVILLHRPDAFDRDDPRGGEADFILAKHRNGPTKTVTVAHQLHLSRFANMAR

[19] = Luminescence Cell-Based Dose Response HTS to Identify Activators of Luciferase Translation or Activity in H4 […] Cells. [Related pubchem assays: 1829 (Project Summary), 1814 (Primary HTS)]; assay type: functional
[20] = COV362 cell viability loss – plate reader, dry powder, SA12, cytotoxicity control for PAX8 inhibitor project, dose response (AID 743144); assay type: functional, cell-based
[21] = system: HeLa; assay: ATP-based viability loss in HeLa cells – cell-based, CellTiter-Glo luminescence, cherry-pick samples, cytotoxicity control for MITF activator project, dose response (AID 540259); assay type: functional; conditions: Homo sapiens
[22] = system: NIH3T3; assay: mammalian cell viability counter-check – Alamar Blue, fluconazole, dry powder, cytotoxicity control for antifungal drug resistance project, dose response (AID 488809); assay type: functional, cell-based; conditions: Mus musculus
[23] = system: INS1; assay: beta-cell survival under cytokine stress – INS-1E, ATP luminescence, dry powder, dose response (AID 488844); assay type: functional, cell-based; conditions: Rattus norvegicus
[24] = system: INS1; assay: INS-1E mitochondrial potential rescue under cytokines – cell-based, JC-1 fluorescence ratio, dry powder, dose response (AID 488931); assay type: functional; conditions: Rattus norvegicus
[25] = suppression of NO production in INS-1E cells – cell-based, Griess absorbance, dry powder, set 3, dose response (AID 488870); assay type: functional; conditions: Rattus norvegicus
[26] = system: INS1; assay: suppression of NO production in INS-1E cells – cell-based, Griess absorbance, dry powder, set 2, dose response (AID 488868); assay type: functional; conditions: Rattus norvegicus
[27] = system: BJ; assay: BJ-TERT fibroblast viability loss – cell-based, RAS-independent, luminescence, dose response (AID 1933); assay type: functional; conditions: Homo sapiens
[28] = system: BJ; assay: BJ-TERT-LT-ST fibroblast viability loss – cell-based, RAS-independent, luminescence, dose response (AID 1935); assay type: functional; conditions: Homo sapiens;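 note: BJ fibroblasts immortalized with TERT plus LT and ST oncogenes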
[29] = system: BJ; assay: cells; assay type: functional, cell-based; conditions: Homo sapiens
[30] = cytotoxicity toward MDA-MB-231 breast cancer cells – cell-based, CellTiter-Glo luminescence, cherry-pick, cytotoxicity control for RAD54 inhibitor project, dose response (AID 651692); assay type: functional
[31] = DRD fibroblast viability loss – cell-based, non-viral oncogenic, luminescence, dose response (AID 1934); assay type: functional; conditions: Homo sapiens
[32] = system: Vero; assay: mammalian cell viability reduction – secondary assay, cytotoxicity control for West Nile virus antiviral project, dose response (AID 1650); assay type: functional; conditions: Chlorocebus sabaeus
[33] = molecular target: Dual specificity tyrosine-phosphorylation-regulated kinase 1A (Rattus norvegicus, UniProt Q63470); assay type: biochemical, Homo sapiens
[34] = system: BJ; assay: growth inhibition of engineered Ras-driven BJ cells – cell-based, alamar blue fluorescence, cherrypicked samples, dose response (AID 2631); assay type: functional; conditions: Homo sapiens;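 note: confirmatory dose-response assay in RAS-dependent BJ fibroblasts engineered with TERT, LT and ST, with cytotoxicity read by fluorescence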
[35] = molecular target: DNA repair and recombination protein RAD54-like (Homo sapiens, UniProt Q92698); assay: RAD54 Holliday junction migration blockers – biochemical, fluorescence, cherry-picked samples, dose series, confirmation (AID 651657); assay type: functional
Chain of DNA repair and recombination protein RAD54-like (Q92698 whole entry): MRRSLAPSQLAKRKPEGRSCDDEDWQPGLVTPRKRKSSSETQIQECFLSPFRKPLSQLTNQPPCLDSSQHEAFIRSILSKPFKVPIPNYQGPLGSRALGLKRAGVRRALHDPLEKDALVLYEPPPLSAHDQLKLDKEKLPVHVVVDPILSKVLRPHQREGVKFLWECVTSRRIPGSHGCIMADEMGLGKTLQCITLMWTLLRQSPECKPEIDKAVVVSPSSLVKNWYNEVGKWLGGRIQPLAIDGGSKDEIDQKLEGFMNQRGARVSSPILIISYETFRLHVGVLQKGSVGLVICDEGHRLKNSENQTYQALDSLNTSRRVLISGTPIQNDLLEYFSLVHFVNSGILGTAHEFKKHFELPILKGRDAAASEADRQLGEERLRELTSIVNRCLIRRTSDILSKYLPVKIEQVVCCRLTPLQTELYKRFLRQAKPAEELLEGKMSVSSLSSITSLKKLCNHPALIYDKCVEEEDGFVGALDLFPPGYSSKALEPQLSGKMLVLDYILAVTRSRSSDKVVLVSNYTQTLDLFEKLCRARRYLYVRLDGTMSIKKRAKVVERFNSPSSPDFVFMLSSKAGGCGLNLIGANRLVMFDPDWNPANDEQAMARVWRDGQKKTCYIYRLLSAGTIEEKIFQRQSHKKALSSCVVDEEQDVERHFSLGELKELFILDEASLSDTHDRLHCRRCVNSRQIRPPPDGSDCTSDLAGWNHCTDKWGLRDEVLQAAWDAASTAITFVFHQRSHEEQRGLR

[36] = molecular target: DNA repair protein RAD52 homolog (Homo sapiens, UniProt P43351); assay type: functional, biochemical
Chain of DNA repair protein RAD52 homolog (P43351 whole entry): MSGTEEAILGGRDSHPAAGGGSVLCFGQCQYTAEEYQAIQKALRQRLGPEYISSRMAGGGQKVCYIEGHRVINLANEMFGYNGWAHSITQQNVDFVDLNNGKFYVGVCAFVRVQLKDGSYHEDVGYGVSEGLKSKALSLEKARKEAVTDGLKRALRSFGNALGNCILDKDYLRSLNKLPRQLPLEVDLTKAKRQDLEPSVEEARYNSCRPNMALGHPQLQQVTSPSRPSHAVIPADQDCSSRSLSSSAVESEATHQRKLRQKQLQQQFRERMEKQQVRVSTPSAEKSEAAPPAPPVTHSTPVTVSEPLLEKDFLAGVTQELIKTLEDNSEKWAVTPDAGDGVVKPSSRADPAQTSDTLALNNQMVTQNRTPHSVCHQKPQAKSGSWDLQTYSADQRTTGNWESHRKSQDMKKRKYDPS

## Cn1nnnc1Sc1ncnc2scc(-c3ccc(F)cc3)c12
[1]
  AC50: > 35 µM (active)
[2]
  AC50: 35.6 µM (active)
[3]
  AC50: 36.4 µM (active)
[4]
  AC50: > 35 µM (active)
[5]
  EC50: > 120 µM (not active)
[6]
  AC50: 37.1 µM (active)
[7]
  AC50: 26.6 µM (active)
[8]
  AC50: 29.8 µM (active)
[9]
  AC50: 68.6 µM (active)
[10]
  AC50: 8.1 µM (active)
[11]
  AC50: 4.15 µM (active)
[12]
  AC50: 28.6 µM (active)
[13]
  AC50: 39.7 µM (active)
[14]
  EC50: 11.2 µM (active)
[15]
  AC50: 44.6 µM (active)
[16]
  EC50: 5.32 µM (active)
[17]
  EC50: 5.23 µM (active)
[18]
  AC50: 93 µM (active)
[19]
  EC50: 0.116 µM (active)
[20]
  AC50: 48 µM (active)

## Nc1nc(-c2cc(-c3ccccc3)no2)cs1
[21]
  AC50: 144 µM (active)

## COc1ccc2c(c1)c1nc3n(c(=O)c1n2CC(=O)N1CCC(Cc2ccccc2)CC1)CCS3
[22]
  AC50: 207 µM (active)

## COc1cccc(S(=O)(=O)N(C)C[C@@H]2Oc3c(NC(=O)Nc4cccc5ccccc45)cccc3C(=O)N([C@@H](C)CO)C[C@H]2C)c1
[23]
  AC50: 77 µM (active)
[24]
  AC50: 98.9 µM (active)
[25]
  AC50: 29 µM (active)
[26]
  AC50: 28.7 µM (active)

## Nc1nc(N)c2c(ccc3[nH]ccc32)n1
[27]
  EC50: 112 µM (active)
[28]
  EC50: > 38 µM (not active)
[29]
  EC50: 4.8 µM (inconclusive)
[30]
  AC50: 4.07 µM (active)
[31]
  EC50: 14.4 µM (inconclusive)
[32]
  CC50: 5.14 µM (active)
[33]
  AC50: 5.51 µM (active)
[34]
  EC50: > 133 µM (inactive)
[35]
  AC50: 38.6 µM (active)
[36]
  AC50: 12 µM (active)
